Source: paper PMC8765320, “Identification of a Proteasome-Targeting Arylsulfonamide with Potential for the Treatment of Chagas’ Disease” (Antimicrobial Agents and Chemotherapy, 2022)

What was measured:
[1] = test system: ubiquitinated proteins in T. cruzi epimastigotes; assay: Accumulation of ubiquitinated proteins in treated epimastigotes (LC-MS/MS); format: cell-based, Trypanosoma cruzi; details: epimastigotes pretreated 8 h at 3× EC50 (methods: 8× EC50); one biological replicate
Procedure: In cells where the function of the proteasome has been compromised, there is a concomitant build-up of ubiquitinated proteins earmarked for degradation. […] Control cultures were treated for the same period of time in the presence of dimethyl sulfoxide (DMSO). Enrichment of ubiquitinated proteins was achieved by immunoprecipitation using magnetic beads conjugated to an antibody specific for the remnant of ubiquitinated lysines following digestion with trypsin and/or LysC. We used liquid chromatography-tandem mass spectrometry (LC-MS/MS) to calculate the ubiquitination ratio of each sample by dividing the reporter intensity of ubiquitinated proteins by the reporter intensity of total protein (see Table S8). As expected, the accumulation of ubiquitinylated proteins was highest in epimastigotes treated with bortezomib (2.7-fold higher than in the DMSO-treated control), which is known to inhibit all three catalytic activities of the proteasome (Fig. 3). […] Similarly, ubiquitinated proteins accumulated to levels 1.9-fold higher in compound 1-treated parasites compared to those recovered from DMSO-treated control cells.
Controls were incubated in the presence of diluent (DMSO). Cells were harvested by centrifugation (1,912 × g, 15 min, 4°C) and washed with ice-cold PBS (1,912 × g, 5 min, 4°C); finally, the cell pellets were resuspended in 1.5 ml of ice-cold lysis buffer (1 mM EDTA, 1 mM DTT, 100 μM TLCK, and 1× Roche EDTA-free cOmplete protease inhibitor cocktail in 50 mM potassium phosphate buffer [pH 7.4]). Cell suspensions were submitted to three freeze-thaw cycles in a dry ice/ethanol bath to biologically inactivate the parasites and then lysed using a OneShot cell disruptor (Constant Systems) at 30 kpsi.
Cell lysates were centrifuged (100,000 × g, 20 min, 4°C), supernatants were collected, and the protein concentrations were determined by using a standard Bio-Rad protein assay. […]

[2] = test system: L. donovani axenic amastigote; assay: L. donovani axenic amastigote drug sensitivity assay; format: cell-based; details: Leishmania donovani, weighted mean, n ≥ 3, read-out: Mean compound 1 EC50 ± SD
Procedure: (§1) L. donovani promastigote ([35]), axenic amastigote ([25]), and T. brucei bloodstream form ([36]) drug sensitivity assays were carried out as previously described. HepG2 monolayers were washed twice in PBS, detached with 0.05% trypsin/EDTA, and then diluted with fully supplemented MEM growth medium. Cells were pelleted at 80 × g for 5 min and resuspended in fully supplemented growth medium. Cells were seeded into 96-well plates (5 × 10^4/well) and allowed to adhere prior to exposure to test compounds. Plates were incubated at 37°C in the presence of 5% CO2 for 72 h. After incubation, resazurin (20 μl of a 2.5-mg/ml^−1 stock solution) was added to each well, followed by incubation for a further 2 h prior to fluorescence being read as described above.

[3] = test system: HepG2 cells; assay: HepG2 drug sensitivity assay (resazurin); format: cell-based; details: Homo sapiens; Mammalian HepG2; 72 h; weighted mean, n ≥ 3; read-out: Mean compound 1 EC50 ± SD
Procedure: as §1

[4] = test system: T. cruzi malic enzyme (cTcME); assay: Malic enzyme assay in clarified epimastigote lysates (NADPH production, 340 nm); format: biochemical, Trypanosoma cruzi
Excerpt: Malic enzyme (ME) catalyzes the oxidative decarboxylation of malate to pyruvate with the concomitant reduction of NAD(P)^+ to NAD(P)H. In light of our TPP studies, we next sought to determine whether the binding of compound 1 to cTcME inhibits enzymatic activity. The ME-dependent production of NADPH was monitored in clarified lysates of T. cruzi epimastigotes at 340 nm after the addition of malate. In the first instance, this assay was validated using ATR-073, an established inhibitor of cTcME ([27]). […] Similarly, preincubation of lysates with 20 μM and 1 μM concentrations of compound 1 inhibited ME activity by 96 and 68%, respectively (Fig. 4C). […] It should be noted that ATR-073 and compound 1 are structurally similar, both being substituted N-phenyl aryl sulfonamides, this common moiety constituting the pharmacophore of this chemical series.
Logarithmic T. cruzi epimastigotes were harvested (1,690 × g, 10 min, 4°C), washed once in ice-cold phosphate-buffered saline, and resuspended at 2 × 10^9 cells ml^−1 in lysis buffer (10 mM phosphate buffer [pH 7.2], 10 mM EDTA, 5 mM benzamidine, 5 mM phenanthroline, 0.1 mM phenylmethylsulfonyl fluoride) containing 1 mg ml^−1 digitonin, followed by incubation at 28°C for 10 min. The resulting lysate was then centrifuged (13,000 × g, 10 min, 4°C), and the supernatant was harvested and stored on ice. The protein concentration of this clarified lysate was determined by using a standard Bio-Rad protein assay.
The activity of malic enzyme was assayed as previously described ([42]), with minor modifications. T. cruzi clarified lysate (30 μl) was added to a reaction mixture (500 μl final volume) containing 50 mM Tris-HCl buffer (pH 7.6), 1 mM MnCl2, and 0.12 mM NADP^+. Reactions were initiated by the addition of 5 mM L-malate. The reduction of NADP^+ was monitored at 340 nm using a UV-2401 spectrophotometer (Shimadzu). To monitor the effect of test compounds on the activity of malic enzyme, compounds (1 and 20 μM) were preincubated for 10 min with the lysate in the reaction mixture. DMSO (0.2%) was used as control. All enzymatic activities were calculated as Δabs min^−1 mg^−1 of protein.

`COc1ccc(NS(=O)(=O)c2cc(-c3cc(C)n[nH]3)ccc2C)cc1OC` [Compound 1] was tested, and the “accumulation of ubiquitinated proteins versus DMSO-treated control” value [1] was 1.9 fold, the EC50 [2] was 0.7 ± 0.1 µM and the EC50 [3] was 23 ± 3 µM. For the same molecule, the “reduction in ME activity” value ([4]; preincubation of lysates with 1 μM) was 68% and the “reduction in ME activity” value ([4]; preincubation of lysates with 20 μM) was 96%.
